PMC11960843, “Exploration of the tunability of BRD4 degradation by DCAF16 trans-labelling covalent glues” (European journal of medicinal chemistry, 2024)

How the values were obtained:
[1] = tested on: glutathione; assay: GSH stability (glutathione reactivity) assay by LC-MS/MS; format: physicochemical; settings: PBS containing 5 mM reduced glutathione; PBS + 5 mM GSH; extrapolated from 240 min assay
Text: Furthermore, we wanted to determine the kinetics of the BRD4BD2-DCAF16 interaction given its covalent nature. […] Additionally, to understand the relationship between ternary complex formation kinetics and warhead reactivity we measured the depletion of the covalent analogs in the presence of glutathione using MS (Table S2). […].

[2] = target: T1, BRD4BD2-DCAF16 ternary complex (Homo sapiens, UniProt O60885+Q9NXF7); assay: DDB1-DCAF16-BRD4BD2 TR-FRET ternary complex formation assay; format: biochemical; settings: for TR-FRETmax (520 nm/490 nm ratio): 6 h degrader incubation; for BRD4BD2-DCAF16 ternary complex formation / DCAF16 recruitment (in words): time-dependent TR-FRET; for incubation time of saturation / maximum TR-FRET signal: measured at 1, 2, 4, 6 and 24 h
T1 construct: E3 ligase to bromodomain 2 (BRD4BD2); His6 (N); StrepII (N); Avi (N); made in house; host or cells: BRD4BD2: E. coli (pET100/D-TOPO)
Text: To determine the relationship between covalent warheads and DCAF16 recruitment to BRD4BD2, we used a time-resolved fluorescence energy transfer (TR-FRET) assay to measure induced BRD4BD2-DCAF16 ternary complex formation (Fig. 3A).
Furthermore, we wanted to determine the kinetics of the BRD4BD2-DCAF16 interaction given its covalent nature. […] Additionally, to understand the relationship between ternary complex formation kinetics and warhead reactivity we measured the depletion of the covalent analogs in the presence of glutathione using MS (Table S2). […] Titrations of compounds to induce the DCAF16-BRD4BD complex were carried out by mixing 100 nM biotinylated BRD4BD2, 500 nM BODIPY-FL labeled DDB1ΔB-DCAF16 variants, and 2 nM terbium-coupled streptavidin (Invitrogen) in an assay buffer containing 50 mM HEPES pH 8.0, 200 mM NaCl, 0.1% Pluronic F-68 solution (Sigma), 0.5% bovine serum albumin (BSA) (w/v) and 1 mM TCEP. […] The TR-FRET signal of each data point was extracted by calculating the 520/490 nm ratio.

[3] = GSH stability (glutathione reactivity) assay by LC-MS/MS; format: physicochemical; settings: phosphate buffered saline (PBS) without glutathione, extrapolated from 240 min assay
[4] = target: T2, BRD4BD2 (Homo sapiens, UniProt O60885); assay: BRD4BD2-eGFP and mCherry flow reporter degradation assay, wild type K562 cells; settings: for increase in degradation potency in comparison to GNE011: BRD4BD2 reporter, 16 h; for Dmax: K562, read-out: maximal degradation (Dmax/16h) of BRD4BD2, K562 cells, 16 h incubation; for DC50: read-out: DC50 of BRD4BD2 degradation
Text: This assay involves the co-expression of mCherry with BRD4BD1/2 fused to an enhanced green fluorescent protein (eGFP) tag, and the subsequent fluorescence measurement of BRD4BD1/2-eGFP normalized to mCherry as a readout for BRD4BD1/2 degradation. It allows for a quantitative, rapid, and facile screening of several MGDs, in a dose-and time-dependent manner. […] Thus, the BRD4BD2 stability system was used to test all subsequent GNE011 analogs in wild type and DCAF16−/− cells.
One day after infection, reporter cells were selected with puromycin at a concentration of 2 μg/mL.
(§5) K562 cells stably expressing degradation reporter were dosed with DMSO or degraders at various times and concentrations using D300e Digital Dispenser (HP). The fluorescent signal was quantified by flow cytometry (LSRFortessa flow cytometer, BD Biosciences) and analyzed using FlowJo (flow cytometry analysis software, BD Biosciences). The geometric mean of the eGFP and mCherry fluorescent signal for round and mCherry-positive cells was calculated. GFP expression was normalized to mCherry signal and drug treatments were compared to DMSO controls.

[5] = target: T2, BRD4BD2; assay: BRD4 AlphaScreen competition assay (JQ1-biotin displacement), BRD4BD2; format: binding; settings: read-out: IC50 BRD4BD2
[6] = target: BRD4BD1 (Homo sapiens, UniProt O60885); assay: BRD4 AlphaScreen competition assay (JQ1-biotin displacement), BRD4BD1; format: binding; settings: read-out: IC50 BRD4BD1
[7] = target: T3, BRD4 (Homo sapiens, UniProt O60885); assay: Washout experiment, Western blot of BRD4 degradation in K562 cells; format: cell-based; parameters: an 11 amino acid peptide knock-in tag to a protein-of-interest using CRISPR insertion; endogenous in cells; settings: K562, 1 μM; for BRD4 degradation after washout compared to no washout (in words): 4 h treatment, 20 h compound-free vs 24 h no washout
Procedure: This experiment involves cell treatment and incubation with a ‘covalent’ compound, followed by a wash-step where the cells are washed and resuspended in compound-free cell media.
Cells were washed with PBS and lysed in RIPA lysis buffer (Thermo Fisher Scientific) with Halt Protease Inhibitor Cocktail (Thermo Fisher Scientific) and Benzonase (Sigma-Aldrich) for 20 min on ice. […] Membranes were blocked in Intercept (PBS) Blocking Buffer (LI-COR Biosciences) and incubated with primary antibodies overnight at 4 °C. The membranes were then washed in Tris-buffered saline with Tween-20 (TBS-T), incubated for 1 h with secondary IRDye-conjugated antibodies (LI-COR Biosciences) and washed three times in TBS-T for 5 min before near-infrared western blot detection on an Odyssey Imaging System (LI-COR Biosciences).

[8] = target: T3, BRD4; assay: BRD4-HiBiT assay, WT JURKAT cells; format: cell-based; parameters: an 11 amino acid peptide knock-in tag to a protein-of-interest using CRISPR insertion; endogenous in cells; host or cells: JURKAT, HiBiT-edited (wild type or DCAF16 knockout); settings: 6 h; for BRD4 degradation: at <100 nM
Procedure: (§1) Thereafter, we sought to characterize the BRD4 cellular degradation potencies in a dose-dependent manner at a shorter time point to minimize secondary effects. This was performed using the bioluminescent HiBiT-BRD4 assay, which consists of an 11 amino acid peptide knock-in tag to a protein-of-interest using CRISPR insertion. A complementary polypeptide (LgBiT) detects and interacts with all HiBiT tagged proteins, thereby reconstituting a luminescent NanoBiT enzyme, that can be quantified by its bioluminescence. WT and DCAF16 KO JURKAT cell lines expressing the BRD4-HiBiT system were generated to quantify dose-dependent BRD4 degradation after 6 h incubation (Fig. 4C).
(§2) After 6 h, the plates were subjected to Nano-Glo HiBiT Lytic detection system (Promega, #N3040) as described in manufacturer's manual. The assays were performed in biological triplicate. DC50 values were determined using a non-linear regression curve fit in GraphPad PRISM 9.5.1.

[9] = target: T3, BRD4; assay: Western blot of BRD4 degradation, wild-type K562 cells; format: cell-based; parameters: an 11 amino acid peptide knock-in tag to a protein-of-interest using CRISPR insertion; endogenous in cells; settings: wild-type K562, 1 μM, 16 h
Procedure: (§3) Western blotting was used to determine the degradation potencies of the covalent BRD4 degraders.
(§4) Cells were washed with PBS and lysed in RIPA lysis buffer (Thermo Fisher Scientific) with Halt Protease Inhibitor Cocktail (Thermo Fisher Scientific) and Benzonase (Sigma-Aldrich) for 20 min on ice. The insoluble fraction was removed by centrifugation, the protein concentration was quantified using a BCA protein assay kit (Thermo Fisher Scientific), and an equal amount of lysate was run on SDS–PAGE 4–12% Bis–Tris Protein Gels (Thermo Fisher Scientific) and then transferred to nitrocellulose membrane with a XCell II Blot Module Wet Tank Transfer System (Thermo Fisher Scientific). Membranes were blocked in Intercept (PBS) Blocking Buffer (LI-COR Biosciences) and incubated with primary antibodies overnight at 4 °C. The membranes were then washed in Tris-buffered saline with Tween-20 (TBS-T), incubated for 1 h with secondary IRDye-conjugated antibodies (LI-COR Biosciences) and washed three times in TBS-T for 5 min before near-infrared western blot detection on an Odyssey Imaging System (LI-COR Biosciences).

[10] = target: T2, BRD4BD2; assay: BRD4BD2-eGFP and mCherry flow reporter degradation assay, DCAF16 KO K562 cells
Text: In order to investigate the degradation of BRD4 by GNE011 and related analogs, we used a fluorescent stability reporter assay reported previously (Fig. 2A) [17]. This assay involves the co-expression of mCherry with BRD4BD1/2 fused to an enhanced green fluorescent protein (eGFP) tag, and the subsequent fluorescence measurement of BRD4BD1/2-eGFP normalized to mCherry as a readout for BRD4BD1/2 degradation. It allows for a quantitative, rapid, and facile screening of several MGDs, in a dose-and time-dependent manner. […] Thus, the BRD4BD2 stability system was used to test all subsequent GNE011 analogs in wild type and DCAF16−/− cells.
Lentivirus containing sgRNA was transduced to 2 × 10^6 of K562-Cas9 cells at 10% volume ratio by spin infection. FACS sorting was performed to enrich BFP+ cells one week after infection. […] Clonal sgDCAF16-expressing K562-Cas9 cells were isolated after one month of expansion, and the genomic sequences were validated via deep sequencing of PCR amplicons targeting sgDCAF16 cutting sites (MGH CCIB DNA Core Service).
as §5

[11] = target: T3, BRD4; assay: Western blot of BRD4 degradation, DCAF16 KO K562 cells; format: cell-based; parameters: an 11 amino acid peptide knock-in tag to a protein-of-interest using CRISPR insertion; endogenous in cells; settings: DCAF16 KO K562, 1 μM, 16 h
Procedure: as §3, §4

[12] = target: T3, BRD4; assay: BRD4-HiBiT assay, DCAF16 KO JURKAT cells; format: cell-based; parameters: an 11 amino acid peptide knock-in tag to a protein-of-interest using CRISPR insertion; endogenous in cells; host or cells: JURKAT, HiBiT-edited (wild type or DCAF16 knockout); settings: 6 h
Procedure: as §1, §2

T1 sequence (Q9NXF7 whole entry, other chains not shown): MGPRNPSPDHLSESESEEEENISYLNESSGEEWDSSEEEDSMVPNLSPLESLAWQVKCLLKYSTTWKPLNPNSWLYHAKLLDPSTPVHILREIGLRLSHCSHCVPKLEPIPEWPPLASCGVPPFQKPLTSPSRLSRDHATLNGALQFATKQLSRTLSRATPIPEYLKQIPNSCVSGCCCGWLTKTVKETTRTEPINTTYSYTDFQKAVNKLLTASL

SMILES | half-life [1] [h] | TR-FRETmax (520 nm/490 nm ratio) [2] | BRD4BD2-DCAF16 ternary complex formation / DCAF16 recruitment (in words) [2] | half-life [3] [h] | DCAF16 dependent BRD4BD2 degradation (in words) ([4]; K562 cells, 16 h incubation) | IC50 [5] [nM] | IC50 [6] [nM] | BRD4 degradation without washout (in words) ([7]; 24 h no washout) | incubation time of saturation / maximum TR-FRET signal [2] [h] | BRD4 degradation (in words) [8] | BRD4 degradation [8] [%] | increase in degradation potency in comparison to GNE011 ([4]; K562 cells) | Dmax [4] [%] | DC50 ([4]; K562 cells, 16 h incubation) [nM] | BRD4 degradation by Western blot (in words) [9] | BRD4 degradation after washout compared to no washout (in words) [7] | BRD4BD2 degradation activity in DCAF16 knockout cells (in words) [10] | BRD4 degradation by Western blot in DCAF16 KO (in words) [11] | BRD4 degradation in DCAF16 KO (in words) [12] | maximal degradation (Dmax/16h) of BRD4BD2 ([4]; K562 cells, 16 h incubation) [%]
Cc1sc2c(c1C)C(c1ccc(/C=C/C(N)=O)cc1)=N[C@@H](CC(=O)OC(C)(C)C)c1nnc(C)n1-2 [MMH271, tert-butyl (S,E)-2-(4-(4-(3-amino-3-oxoprop-1-en-1-yl)phenyl)-2,3,9-trimethyl-6H-thieno[3,2-f][1,2,4]triazolo[4,3-a][1,4]diazepin-6-yl)acetate] | > 12.5 | 0.14 | no significant DCAF16 recruitment | > 12.5 | almost no DCAF16 dependent BRD4BD2 degradation | 7.58 | 8.08 | showed BRD4 degradation in 24 h no washout experiments |  |  |  |  |  |  |  |  |  |  |  | 
C=CC(=O)Nc1ccc(C2=N[C@@H](CC(=O)OC(C)(C)C)c3nnc(C)n3-c3sc(C)c(C)c32)cc1 [MMH1, tert-butyl (S)-2-(4-(4-acrylamidophenyl)-2,3,9-trimethyl-6H-thieno[3,2-f][1,2,4]triazolo[4,3-a][1,4]diazepin-6-yl)acetate] | 9.53 | 1.78 |  |  |  | 15.5 | 17.7 |  | 24 | noticeable BRD4 degradation | > 90 | ~ 3333 fold | 95 | 0.3 | nearly complete BRD4 degradation | no or minimal difference | almost entirely ablated | completely rescued by DCAF16 KO | completely rescued by DCAF16 KO | 
C=CS(=O)(=O)Nc1ccc(C2=N[C@@H](CC(=O)OC(C)(C)C)c3nnc(C)n3-c3sc(C)c(C)c32)cc1 [MMH2, tert-butyl (S)-2-(2,3,9-trimethyl-4-(4-(vinylsulfonamido)phenyl)-6H-thieno[3,2-f][1,2,4]triazolo[4,3-a][1,4]diazepin-6-yl)acetate] | > 12.5 | 3.75 |  |  |  |  | 48.6 |  | 1 | noticeable BRD4 degradation | > 90 | ~1000 fold | 95 | 1 | nearly complete BRD4 degradation | no or minimal difference | almost entirely ablated | completely rescued by DCAF16 KO | completely rescued by DCAF16 KO | 
Cc1sc2c(c1C)C(c1ccc(C#CCN)cc1)=N[C@@H](CC(=O)OC(C)(C)C)c1nnc(C)n1-2 [GNE011, tert-butyl (S)-2-(4-(4-(3-aminoprop-1-yn-1-yl)phenyl)-2,3,9-trimethyl-6H-thieno[3,2-f][1,2,4]triazolo[4,3-a][1,4]diazepin-6-yl)acetate, reference compound] | 11.3 | 0.18 |  | > 12.5 |  | 7.79 | 11.2 |  |  |  |  |  | ~50 |  | moderate degradation | nearly a complete rescue |  |  |  | 49
Cc1sc2c(c1C)C(c1ccc(C#CC(N)=O)cc1)=N[C@@H](CC(=O)OC(C)(C)C)c1nnc(C)n1-2 [MMH287, tert-butyl (S)-2-(4-(4-(3-amino-3-oxoprop-1-yn-1-yl)phenyl)-2,3,9-trimethyl-6H-thieno[3,2-f][1,2,4]triazolo[4,3-a][1,4]diazepin-6-yl)acetate] | 6.33 | 0.15 | almost no increase in ternary complex formation | > 12.5 |  |  | 12.9 |  |  | noticeable BRD4 degradation |  |  | 69 | 51 | nearly complete BRD4 degradation | nearly a complete rescue |  | completely rescued by DCAF16 KO | completely rescued by DCAF16 KO | 
